The IC50 is the concentration that inhibits the measured activity by half.

Where only a bound is given, the exact number is not on record here.

In the assay the target is Human neutrophil elastase (Homo sapiens (Human), UniProt P08246). Briefly: Human Neutrophil Elastase Assay. Format: biochemical. The conditions noted are these: substrate MeOSuc-Ala-Ala-Pro-Val-AMC 250 μM, fluorescence, pH 7.5. The method, then: Human Neutrophil Elastase Assay
Human neutrophil elastase, sequence (P08246 30-247): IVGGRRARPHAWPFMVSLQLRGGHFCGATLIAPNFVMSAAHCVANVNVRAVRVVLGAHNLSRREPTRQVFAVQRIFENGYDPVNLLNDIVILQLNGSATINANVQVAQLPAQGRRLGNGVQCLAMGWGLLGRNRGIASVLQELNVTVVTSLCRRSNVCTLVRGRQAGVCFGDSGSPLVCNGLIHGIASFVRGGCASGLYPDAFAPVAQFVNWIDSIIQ
All other materials were of the highest grade commercially available.
The following buffers were used: Compound buffer: 100 mM Tris, 500 mM NaCl, adjusted to pH 7.5; Assay buffer: 100 mM Tris, 500 mM NaCl, adjusted to pH 7.5, containing 0.01% BSA.
Assay conditions: Test compounds were prediluted in DMSO and subsequently in compound buffer (5% DMSO final). […] After inactivation of the enzyme, fluorescence intensities were measured at 380 nm excitation and 460 nm emission wavelengths.
Each plate contains wells with a high value control (DMSO+enzyme+substrate) and wells with a low value control (DMSO+inactivated enzyme+substrate). IC50 values were estimated using a sigmoidal concentration response curve with variable slope. Means of low values were taken as 0%, means of high values as 100%. IC50 values of selected compound in the Neutrophil Elastase assay: […]
Take `CN=S(=O)(c1ccc(CNC(=O)c2cn(C(C)C)c(C)c(-c3cccc(C(F)F)c3)c2=O)cc1)N(C)C` (stereo not drawn) [Example 61, 5-(3-Difluoromethyl-phenyl)-1-isopropyl-6-methyl-4-oxo-1,4-dihydro-pyridine-3-carboxylic acid 4-(N,N,N′-trimethylsulfamimidoyl)-benzylamide]: half-maximal inhibition (IC50) was put at 10.2 nM. For `CCn1cc(C(=O)NCc2ccc(S(=O)(=NC#N)C(C)C)cc2)c(=O)c(-c2cccc(C(F)(F)F)c2)c1C` (stereo not drawn) [Example 11] the value was less than 1 nM; for `CCn1cc(C(=O)NCc2ccc(S(=O)(CC)=NC#N)cc2)c(=O)c(-c2cccc(C(F)F)c2)c1C` (stereo not drawn) [Example 29], 1.5 nM; for `CCn1cc(C(=O)NCc2ccc(S(C)(=O)=NC#N)cc2)c(=O)c(-c2cccc(C(F)(F)F)c2)c1C` (racemic) [Example 4, 1-Ethyl-6-methyl-4-oxo-5-(3-trifluoromethyl-phenyl)-1,4-dihydro-pyridine-3-carboxylic acid 4-(N-cyano-S-methylsulfonimidoyl)-benzylamide], 3 nM. For `Cc1c(-c2cccc(C(F)(F)F)c2)c(=O)c(C(=O)NCc2ccc(S(C)(=O)=NC#N)cc2)cn1-c1ccnn1C` (stereo not drawn) [Example 8, 6-Methyl-1-(2-methyl-2H-pyrazol-3-yl)-4-oxo-5-(3-trifluoromethyl-phenyl)-1,4-dihydro-pyridine-3-carboxylic acid 4-(N-cyano-S-methylsulfonimidoyl)-benzylamide] the value was 2.4 nM; for `Cc1c(-c2cccc(C(F)(F)F)c2)c(=O)c(C(=O)NCc2ccc(S(=O)(=NC#N)C(C)C)cc2)cn1C1CC1` (single isomer, unassigned) [Example 22B], 1.2 nM.

`Cc1cc(CNC(=O)c2cn(C(C)C)c(C)c(-c3cccc(C(F)(F)F)c3)c2=O)ccc1S(C)(=O)=NC#N` (stereo not drawn) [Example 66, 1-Isopropyl-6-methyl-4-oxo-5-(3-trifluoromethyl-phenyl)-1,4-dihydro-pyridine-3-carboxylic acid 3-methyl-4-(N-cyano-S-methylsulfonimidoyl)-benzylamide] came in with an IC50 of 3.4 nM. For `Cc1c(-c2ccnc(C(F)(F)F)c2)c(=O)c(C(=O)NCc2ccc(S(C)(=O)=NC#N)cc2)cn1C(C)C` (single isomer, unassigned) [Example 3A, 1-Isopropyl-2-methyl-4-oxo-2′-trifluoromethyl-1,4-dihydro-[3,4′]-bipyridinyl-5-carboxylic acid 4-(N-cyano-S-methylsulfonimidoyl)-benzylamide] the value was 12 nM.

The molecule `Cc1c(-c2cccc(C(F)(F)F)c2)c(=O)c(C(=O)NCc2ccc(S(C)(=O)=NC#N)cc2)cn1-c1nccs1` (stereo not drawn) [Example 56] gave a half-inhibitory concentration (IC50) of 3.1 nM.

`Cc1c(-c2cccc(C(F)F)c2)c(=O)c(C(=O)NCc2ccc(S(C)(=O)=NC#N)cc2)cn1-c1ccccc1` (single isomer, unassigned) [Example 38] had an IC50 of 3.7 nM. With `CCS(=O)(=NC#N)c1ccc(CNC(=O)c2cn(C(C)C)c(C)c(-c3cccc(C(F)(F)F)c3)c2=O)cc1` (stereo not drawn) [Example 12], the IC50 was less than 1 nM. On to `Cc1cc(S(C)(=O)=NC#N)ccc1CNC(=O)c1cn(C(C)C)c(C)c(-c2cccc(C(F)(F)F)c2)c1=O` (stereo not drawn) [Example 15], for which half-maximal inhibition (IC50) was put at 2.2 nM. `CN=S(C)(=O)c1ccc(CNC(=O)c2cn(C(C)C)c(C)c(-c3cccc(C(F)(F)F)c3)c2=O)cc1` (stereo not drawn) [Example 67, 1-Isopropyl-6-methyl-4-oxo-5-(3-trifluoromethyl-phenyl)-1,4-dihydro-pyridine-3-carboxylic acid 4-(N,S-dimethylsulfonimidoyl)-benzylamide] registered an IC50 of 49.3 nM. For `CCn1cc(C(=O)NCc2ccc(S(=O)(=NC#N)C(C)C)cc2)c(=O)c(-c2cccc(C(F)F)c2)c1C` (single isomer, unassigned) [Example 30B] the value was less than 1 nM. For `CCn1cc(C(=O)NCc2ccc(S(=O)(CC)=NC#N)cc2)c(=O)c(-c2cccc(C(F)(F)F)c2)c1C` (stereo not drawn) [Example 10] the value was 1.2 nM; for `CCn1cc(C(=O)NCc2ccc(S(=O)(=NC#N)C(C)C)cc2)c(=O)c(-c2cccc(C(F)F)c2)c1C` (single isomer, unassigned) [Example 30A], 1.8 nM.

Regarding `Cc1c(-c2cccc(C(F)(F)F)c2)c(=O)c(C(=O)NCc2ccc(S(C)(=O)=NC#N)cc2)cn1C1CCOC1` (stereo not drawn) [Example 54], inhibition was half-maximal at 2.3 nM (IC50).

As to `CCn1cc(C(=O)NCc2ccc(S(C)(=O)=NC#N)cc2)c(=O)c(-c2cccc(C(F)(F)F)c2)c1C` (single isomer, unassigned) [Example 4A, 1-Ethyl-6-methyl-4-oxo-5-(3-trifluoromethyl-phenyl)-1,4-dihydro-pyridine-3-carboxylic acid 4-(N-cyano-S-methylsulfonimidoyl)-benzylamide], the IC50 came to 4.1 nM. To `Cc1c(-c2ccc(F)c(C(F)(F)F)c2)c(=O)c(C(=O)NCc2ccc(S(C)(=O)=NC#N)cc2)cn1C(C)C` (single isomer, unassigned) [Example 41] belongs 1.8 nM. For `Cc1c(-c2cccc(C(F)(F)F)c2)c(=O)c(C(=O)NCc2ccc(S(C)(=O)=NC#N)cc2)cn1-c1ccnn1C` (single isomer, unassigned) [Example 47] the value was 1.2 nM; for `CCS(=O)(=NC#N)c1ccc(CNC(=O)c2cn(-c3ccnn3C)c(C)c(-c3cccc(C(F)F)c3)c2=O)cc1` (stereo not drawn) [Example 36], 1 nM.

`CCn1cc(C(=O)NCc2ccc(S(=O)(CC)=NC#N)cc2)c(=O)c(-c2cccc(C(F)F)c2)c1C` (single isomer, unassigned) [Example 29B] gave a half-maximal inhibitory concentration (IC50) of less than 1 nM. For `Cc1c(-c2cccc(C(F)F)c2)c(=O)c(C(=O)NCc2ccc(S(C)(=O)=NC#N)cc2)cn1C1CCC1` (stereo not drawn) [Example 6, 5-(3-Difluoromethyl-phenyl)-1-cyclobutyl-6-methyl-4-oxo-1,4-dihydro-pyridine-3-carboxylic acid 4-(N-cyano-S-methylsulfonimidoyl)-benzylamide] the value was 2.4 nM; for `Cc1c(-c2cccc(C(F)(F)F)c2)c(=O)c(C(=O)NCc2ccc(S(C)(=O)=NC#N)c[n+]2[O-])cn1C(C)C` (stereo not drawn) [Example 62, 5-(3-Trifluoromethyl-phenyl)-1-isopropyl-6-methyl-4-oxo-1,4-dihydro-pyridine-3-carboxylic acid (5-(N-cyano-S-methylsulfonimidoyl)-1-oxy-pyridin-2-yl)-methylamide], 2.7 nM; for `Cc1c(-c2cccc(C(F)(F)F)c2)c(=O)c(C(=O)NCc2ccc(S(C)(=O)=NC#N)cc2)cn1-c1ccccc1` (single isomer, unassigned) [Example 24], 5.5 nM. To `Cc1c(-c2cccc(C(F)(F)F)c2)c(=O)c(C(=O)NCc2ccc(S(C)(=O)=NC#N)cc2)cn1-c1cncnc1` (single isomer, unassigned) [Example 28] belongs 3.3 nM; to `CCn1cc(C(=O)NCc2ccc(S(=O)(=NC#N)C(C)C)cc2)c(=O)c(-c2cccc(C(F)F)c2)c1C` (stereo not drawn) [Example 30], less than 1 nM. For `CCS(=O)(=NC#N)c1ccc(CNC(=O)c2cn(C(C)C)c(C)c(-c3cccc(C(F)F)c3)c2=O)cc1` (stereo not drawn) [Example 31] the value was less than 1 nM. Turning to `Cc1c(-c2ccnc(C(F)(F)F)c2)c(=O)c(C(=O)NCc2ccc(S(C)(=O)=NC#N)cc2)cn1-c1cccnc1` (single isomer, unassigned) [Example 45], the half-inhibitory concentration (IC50) was found to be 14.4 nM. For `Cc1c(-c2cccc(C(F)(F)F)c2)c(=O)c(C(=O)NCc2ccc(S(C)(=O)=NC#N)cc2)cn1C1CCOCC1` (stereo not drawn) [Example 53] the value was 2.3 nM; for `Cc1c(-c2ccc(F)c(C(F)F)c2)c(=O)c(C(=O)NCc2ccc(S(C)(=O)=NC#N)cc2)cn1C(C)C` (single isomer, unassigned) [Example 42], 4.7 nM. To `Cc1c(-c2cccc(C(F)(F)F)c2)c(=O)c(C(=O)NCc2ccc(S(C)(=O)=NC#N)cn2)cn1C(C)C` (stereo not drawn) [Example 16, 5-(3-trifluoromethyl-phenyl)-1-isopropyl-6-methyl-4-oxo-1,4-dihydro-pyridine-3-carboxylic acid (5-(N-cyano-S-methylsulfonimidoyl)pyridin-2-yl)methylamide] belongs 1.9 nM; to `CCn1cc(C(=O)NCc2ccc(S(C)(=O)=NC#N)cc2)c(=O)c(-c2cccc(C(F)F)c2)c1C` (stereo not drawn) [Example 5, 5-(3-Difluoromethyl-phenyl)-1-ethyl-6-methyl-4-oxo-1,4-dihydro-pyridine-3-carboxylic acid 4-(N-cyano-S-methylsulfonimidoyl)-benzylamide], 2.5 nM.

`Cc1cc(S(C)(=O)=NC#N)ccc1CNC(=O)c1cn(C(C)C)c(C)c(-c2cccc(C(F)F)c2)c1=O` (stereo not drawn) [Example 34] came in with an IC50 of 2.4 nM.

For `Cc1c(-c2cccc(C(F)F)c2)c(=O)c(C(=O)NCc2ccc(S(=O)(=NC#N)C(C)C)cc2)cn1-c1ccnn1C` (stereo not drawn) [Example 37], the IC50 is less than 1 nM. To `CCn1cc(C(=O)NCc2ccc(S(=O)(CC)=NC#N)cc2)c(=O)c(-c2cccc(C(F)(F)F)c2)c1C` (single isomer, unassigned) [Example 10B] belongs 1.2 nM; to `CCn1cc(C(=O)NCc2ccc(S(=O)(CC)=NC#N)cc2)c(=O)c(-c2cccc(C(F)F)c2)c1C` (single isomer, unassigned) [Example 29A], 2.2 nM; to `CCS(=O)(=NC#N)c1ccc(CNC(=O)c2cn(C3CC3)c(C)c(-c3cccc(C(F)(F)F)c3)c2=O)cc1` (single isomer, unassigned) [Example 21A], 5.2 nM. `Cc1c(-c2cccc(C(F)(F)F)c2)c(=O)c(C(=O)NCc2ccc(S(C)(=O)=NC#N)c(F)c2)cn1C(C)C` (stereo not drawn) [Example 13] returned an IC50 of 2.4 nM.

The values above are taken from patent publication US9346794B1, “Substituted 4-pyridones and their use as inhibitors of neutrophil elastase activity” (Boehringer Ingelheim International GmbH, priority 2012, dated 2016).
